According to patent US9815783B2, “(3-alkylthio)propenoic acid-derived compounds and their application in cosmetics” (EXSYMOL, priority 2015, dated 2017):

Columns and labels:
[1] = Antioxidant potential against squalene hydroperoxidation by singlet oxygen (quenching, methylene blue, UV-B, HPLC); conditions: UV-B radiation dose 1.42 J·cm−2, methylene blue photosensitizer
Procedure: Experimentally, a squalene solution at 5 g/100 mL, a methylene blue solution at 5 mM and a solution of the compound according to the invention (from 1 to 5 mM) or a control compound (methylthiopropylamido acetyl methionine-AMDM) were prepared after being dissolved in 100 mL of methanol (HPLC grade). Then in a UV-B oven, each solution was poured in equal parts into an uncovered Petri dish, in order to be submitted to a radiation dose (1D) of 1.42 J·cm^−2. At the end of the radiation, volumes of the solutions were recovered, adjusted to 20 mL with methanol prior to analysis by HPLC assay and after removal of methylene blue. The “quenching,” rate was then deduced from the following equation: [formula]

HaCaT keratinocytes [2] = test: Viability of HaCaT keratinocytes exposed to UV-B cytotoxic doses (MTT method); type: cell-based; conditions: Homo sapiens, light or radiation study, UV-B 100 mJ/cm2, MTT after 24 hours, irradiated untreated control 46, non-irradiated 100, read-out: % cell viability; for viability at 100 µM: 0.1 mM in PBS; for viability at 250 µM: 0.25 mM in PBS; for viability at 500 µM: 0.5 mM in PBS
Procedure: Test 3: Evidence of the Ability of the (Z)-Isomer Conjugates of Formula (I) to Make Viable a Keratinocyte Cell Line Exposed to UV-B Cytotoxic Doses
Experimentally, the study was also carried out on a cell line of immortalized keratinocytes “HaCaT” seeded in 24-well plates at a rate of 8000 cells per square centimeter, namely 15200 cells per welkin 0.5 ml culture medium (with 10% foetal calf serum).
500 μl of the conjugate according to the invention were added in each well at a concentration from 0.05 to 0.5 mM in PBS. The cells in the presence of active ingredient were then exposed to ultraviolet radiations (UV-B) at the moderate dose of 100 mJ·cm−^2, and then placed into a medium without active ingredient for 24 hours. After removal of the medium, the HaCaT keratinocytes cell viability was also measured using the “MTT method” (solution at 250 μg/ml) and by spectrophotometry (absorbance at 570 nm). Gathering the average values obtained from three independent experiments, the results are presented in table 3 below, in comparison with those obtained for two controls, the non-irradiated cells and the non-treated irradiated cells with the conjugates according to the invention.

[3] = Photo-isomerization of (Z)-isomer conjugates to E-isomer under UV-B irradiation (HPLC); type: physicochemical; conditions: 2.5 mM in methanol with squalene; UV-B irradiation dose 1 J·cm−2; formation of E-isomer by HPLC
Procedure: Test 4: Evidence of the Ability of the (Z)-Isomer Conjugates of Formula (I) to Absorb Ultraviolet Radiation by Photo-Isomerization
Principle: the aim is to check whether the conjugates according to the invention are able to isomerize under UV-B irradiation.
Experimentally, 2 ml of a squalene solution at 5 g/100 mL and 2 mL of a solution of compound according to the invention at the concentration of 25 mM in methanol were introduced into a 20 mL measuring cylinder, and then supplemented with methanol up to 20 mL. The preparation thus obtained was poured into a Petri dish onto which an irradiation dose of 1 J·cm^−2 was applied in a UV-B oven. At the end of the irradiation, the solutions were collected and analyzed by HPLC dosage. Volumes were previously standardized with methanol.
Chromatographic profiles were thus obtained, and the formation of the E-isomer was investigated. An isomerization rate was then determined by comparison with a control profile.

[4] = Opposition to trans-urocanic acid photo-induced isomerization (HPLC); conditions: compound 5 mM, irradiation dose 31 mJ·cm−2
Procedure: Test 5: Evidence of the Ability of the (Z)-Isomer Conjugates of Formula (I) to Oppose the Trans-Urocanic Acid Photo-Induced Isomerization
Principle: the aim is to check whether the conjugates according to the invention are capable of opposing the trans-urocanic acid photo-isomerization.
Experimentally, the study was carried out almost identically as in tests 1 and 4 above. Beforehand, it was checked that under defined experimental conditions, trans-urocanic acid generates a significant amount of cis-urocanic acid that can be measured by HPLC analysis. The irradiation dose (1D) was 31 mJ·cm^−2 for a compound concentration of 5 mM.

HaCaT keratinocytes [5] = test: Cytotoxic potential of sulfoxide and sulfone oxidation by-products on HaCaT keratinocytes (MTT method); type: cell-based; conditions: 2.5 mM in PBS, average of three independent experiments, control = 100
Procedure: Test 2: Evidence of the Absence of Cytotoxic Potential of the Oxidation by-Products of the (Z)-Isomer Conjugates of Formula (I)
Experimentally, the test was carried out on a cell line of immortalized keratinocytes “HaCaT” maintained by subculture in a complete culture medium “DMEM” (with 10% foetal calf serum) in a humid atmosphere at 37° C. and 5% CO2. HaCaT cells were seeded in 24-well plates at the rate of 1·10^5 cells per well.
Sulfoxide and sulfone derivatives of (Z)-isomer conjugates of formula (I) were synthesized after a stoichiometric exposure to hydrogen peroxide (H2O2), then purified and finally quantified.
500 μl of sulfoxide and sulfone oxidation by-products from the conjugates according to the invention were added in each well, at the concentration of 2.5 mM in PBS. After removal of the medium, the HaCaT keratinocytes cell viability was measured using the “MTT method” (MTT standing for (4,5-dimethylthiazol-2-yl)-2,5-diphenyltetrazolium bromide) (solution at 500 μg/ml) and by spectrophotometry (absorbance at 550 nm). Expressed as the average values obtained from three independent experiments, the results are gathered in table 2 below, in comparison with those obtained for the non-irradiated cells.

| % isomerization [3] | SMILES | % squalene protection ([1]; compound 1 mM in methanol) | % squalene protection ([1]; compound 5 mM in methanol) | viability at 500 µM (HaCaT keratinocytes [2]) | other results |
| --- | --- | --- | --- | --- | --- |
|  | CS/C=C/C(=O)NCCO [(E)-N-(2-hydroxyethyl)-3-(methylthio)propenamide] | 71% |  |  |  |
|  | CS/C=C/C(=O)NCCc1ccc(O)cc1 [(E)-N-(4-hydroxyphenethyl)-3-(methylthio)propenamide] | 30% |  |  |  |
| 62% | CS/C=C\C(=O)NCCO [(Z)-N-(2-hydroxyethyl)-3-(methylthio)propenamide] | 24% | 25% | 94% | viability at 100 µM (HaCaT keratinocytes [2]): 64%; viability at 250 µM (HaCaT keratinocytes [2]): 85%; % inhibition of trans-urocanic acid photo-isomerization [4]: 75% |
|  | CS(=O)(=S)/C=C\C(=O)NCCO (stereo not shown) [(Z)-N-(2-hydroxyethyl)-3-(methylthiosulfonyl)propenamide] |  |  |  | % cell viability (HaCaT keratinocytes [5]): 93.1% |
| 95% | CS/C=C\C(=O)NCCc1ccc(O)cc1 [(Z)-N-(4-hydroxyphenethyl)-3-(methylthio)propenamide] | 35% | 44% | 100% | viability at 100 µM (HaCaT keratinocytes [2]): 70%; viability at 250 µM (HaCaT keratinocytes [2]): 93%; % inhibition of trans-urocanic acid photo-isomerization [4]: 78% |
|  | CS(=O)(=S)/C=C\C(=O)NCCc1ccc(O)cc1 (stereo not shown) [(Z)-N-(4-hydroxyphenethyl)-3-(methylthiosulfonyl)propenamide] |  |  |  | % cell viability (HaCaT keratinocytes [5]): 95.0% |
| 60% | CCNC(=O)/C=C\SC [(Z)-N-ethyl-3-(methylthio)propenamide] |  |  | 86% |  |
|  | CSCCCNC(=O)C(CCSC)NC(C)=O (stereo not shown) [AMDM, methylthiopropylamido acetyl methionine, reference compound] | 3% | 15% |  |  |
